Key:
Human alphaherpesvirus 2 [1] = assay: Antiviral activity against HSV-2 infected in Vero cells incubated for 5 days by fluorescence based microtiter plate reader assay; assay type: functional, organism-based; conditions: Human alphaherpesvirus 2, Vero, 120 h
Human alphaherpesvirus 1 [2] = assay: Antiviral activity against HSV-1 infected in Vero cells incubated for 5 days by fluorescence based microtiter plate reader assay; assay type: functional, organism-based; conditions: Human alphaherpesvirus 1, Vero, 120 h
[3] = Half life in human at 1 mg/kg, po; assay type: ADME, organism-based; conditions: in vivo
[4] = Protein binding in dog plasma assessed as unbound fraction; assay type: ADME, cell-free, Canis lupus familiaris
[5] = Terminal elimination half life in human at […]; assay type: ADME, organism-based; conditions: in vivo, read-out: beta t1/2 (converted)
[6] = Protein binding in minipig plasma assessed as unbound fraction; assay type: ADME, cell-free, Sus scrofa domesticus; conditions: pig
[7] = target: Voltage-gated inwardly rectifying potassium channel KCNH2 (Homo sapiens, UniProt Q12809); assay: Inhibition of human ERG expressed in HEK293 cells by whole cell patch clamp assay; assay type: toxicity, cell-based
Voltage-gated inwardly rectifying potassium channel KCNH2, sequence (Q12809 whole entry): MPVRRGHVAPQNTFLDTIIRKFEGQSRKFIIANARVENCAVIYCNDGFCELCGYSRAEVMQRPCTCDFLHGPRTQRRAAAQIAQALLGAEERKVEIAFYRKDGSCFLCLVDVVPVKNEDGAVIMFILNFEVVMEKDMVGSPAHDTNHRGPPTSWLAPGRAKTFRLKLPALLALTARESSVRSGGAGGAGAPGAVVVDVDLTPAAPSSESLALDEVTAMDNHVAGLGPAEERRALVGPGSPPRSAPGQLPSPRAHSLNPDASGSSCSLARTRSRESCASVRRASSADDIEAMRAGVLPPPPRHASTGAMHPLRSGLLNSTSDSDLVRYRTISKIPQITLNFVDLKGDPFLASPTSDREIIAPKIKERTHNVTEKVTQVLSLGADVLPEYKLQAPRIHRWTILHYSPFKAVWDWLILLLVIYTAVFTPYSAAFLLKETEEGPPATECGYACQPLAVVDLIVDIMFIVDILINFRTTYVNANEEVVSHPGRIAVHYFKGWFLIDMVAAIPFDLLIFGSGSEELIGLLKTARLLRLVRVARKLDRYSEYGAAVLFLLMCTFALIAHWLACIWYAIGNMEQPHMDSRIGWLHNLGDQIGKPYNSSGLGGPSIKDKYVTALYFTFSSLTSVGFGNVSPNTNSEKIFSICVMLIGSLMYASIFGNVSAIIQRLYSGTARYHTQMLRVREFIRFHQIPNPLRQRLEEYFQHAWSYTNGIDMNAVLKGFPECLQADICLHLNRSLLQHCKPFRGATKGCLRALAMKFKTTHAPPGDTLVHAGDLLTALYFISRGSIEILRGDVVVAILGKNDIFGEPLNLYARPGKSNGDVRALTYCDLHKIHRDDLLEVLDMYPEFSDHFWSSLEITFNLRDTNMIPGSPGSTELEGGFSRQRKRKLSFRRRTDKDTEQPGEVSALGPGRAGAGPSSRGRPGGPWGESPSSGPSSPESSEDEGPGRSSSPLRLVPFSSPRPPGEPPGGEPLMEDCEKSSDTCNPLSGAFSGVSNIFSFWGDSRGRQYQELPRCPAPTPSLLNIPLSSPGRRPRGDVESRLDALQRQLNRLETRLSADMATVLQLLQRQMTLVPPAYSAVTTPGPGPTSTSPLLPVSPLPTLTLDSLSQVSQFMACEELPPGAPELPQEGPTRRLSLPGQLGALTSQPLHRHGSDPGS

[8] = Oral bioavailability in human at 1 mg/kg; assay type: ADME, organism-based; conditions: in vivo
Human alphaherpesvirus 2 [9] = assay: Antiviral activity against HSV-2 infected in po dosed BALB/c mouse administered twice on infection day and three times daily from day 1 to 4 post infection; assay type: functional; conditions: Human alphaherpesvirus 2, 24 h
Carbonic anhydrase 2 = Carbonic anhydrase 2 (Homo sapiens, UniProt P00918); assay: Inhibition of carbonic anhydrase 2 (unknown origin) by CO2 hydration assay
[10] = AUC in human at 1 mg/kg, po; assay type: ADME, organism-based; design: dose 1 mg/kg, route po; conditions: in vivo
[11] = Protein binding in rat plasma assessed as unbound fraction; assay type: ADME, cell-free
Human alphaherpesvirus 1 [12] = assay: Antiviral activity against HSV-1 McKrae infected in BALB/c mouse assessed as reduction in viral load at 50 mg/kg, po infected with virus for 35 days prior to heat stress reactivation followed by compound treatment immediately and at 12 hrs post reactivation measured after 24 hrs post reactivation; assay type: functional; design: scale not given: the % may be the effect or the level left
[13] = Oral bioavailability in dog at 1 mg/kg; assay type: ADME, organism-based, Canis lupus familiaris; conditions: in vivo
[14] = AUC in rat at 1 mg/kg, po; assay type: ADME, organism-based; design: dose 1 mg/kg, route po; conditions: in vivo
[15] = Oral bioavailability in rat at 1 mg/kg; assay type: ADME, organism-based; conditions: in vivo
[16] = Oral bioavailability in monkey at 1 mg/kg; assay type: ADME, organism-based, Macaca mulatta; conditions: rhesus monkey, in vivo
[17] = Half life in dog at 1 mg/kg, po; assay type: ADME, organism-based, Canis lupus familiaris; conditions: in vivo
[18] = AUC in monkey at 1 mg/kg, po; assay type: ADME, organism-based, Macaca mulatta; design: dose 1 mg/kg, route po; conditions: rhesus monkey, in vivo
[19] = AUC in dog at 1 mg/kg, po; assay type: ADME, organism-based, Canis lupus familiaris; design: dose 1 mg/kg, route po; conditions: in vivo
[20] = Protein binding in monkey plasma assessed as unbound fraction; assay type: ADME, cell-free, Macaca mulatta; conditions: rhesus monkey
[21] = Half life in rat at 1 mg/kg, po; assay type: ADME, organism-based; conditions: in vivo
[22] = Oral bioavailability in human at 400 mg administered as 1 hr intravenous infusion; assay type: ADME, organism-based; conditions: in vivo
[23] = Half life in monkey at 1 mg/kg, po; assay type: ADME, organism-based, Macaca mulatta; conditions: rhesus monkey, in vivo
[24] = Protein binding in human plasma assessed as unbound fraction; assay type: ADME, cell-free
Human alphaherpesvirus 1 [25] = assay: Antiviral activity against HSV-1 infected in po dosed BALB/c mouse administered twice on infection day and three times daily from day 1 to 4 post infection; assay type: functional; conditions: Human alphaherpesvirus 1, 96 h, time 4 day
[26] = Protein binding in rabbit plasma assessed as unbound fraction; assay type: ADME, cell-free, Oryctolagus cuniculus
[27] = Protein binding in guinea pig plasma assessed as unbound fraction; assay type: ADME, cell-free, Cavia porcellus
[28] = Protein binding in mouse plasma assessed as unbound fraction; assay type: ADME, cell-free
[29] = Octanol/water partition coefficient, log P of the compound; assay type: physicochemical
[30] = Oral bioavailability in monkey; assay type: ADME, organism-based, Macaca mulatta; conditions: rhesus monkey, in vivo
[31] = Oral bioavailability in dog; assay type: ADME, organism-based, Canis lupus familiaris; conditions: in vivo
[32] = Oral bioavailability in rat; assay type: ADME, organism-based; conditions: in vivo
[33] = Oral bioavailability in human at 350 mg administered as 1 hr intravenous infusion once a week and measured upto 24 hrs; assay type: ADME, organism-based; conditions: in vivo

## Cc1nc(N(C)C(=O)Cc2ccc(-c3ccccc3)cc2)sc1S(=O)(=O)NCCO
Human alphaherpesvirus 2 [1]
  IC50: 5 nM
Human alphaherpesvirus 1 [2]
  IC50: 0.75 nM

## Cc1nc(N(C)C(=O)Cc2ccc(-c3ccccn3)cc2)sc1S(N)(=O)=O
[3]
  half-life: 60 h
[4]
  Fu: 1%
[5]
  half-life: 60 h
[6]
  Fu: 2.5%
[7]
  IC50: 160000 nM
[8]
  F: 73%
Human alphaherpesvirus 2 [9]
  ED50: 16 mg/kg
Carbonic anhydrase 2
  IC50: 2000 nM
[10]
  AUC: 90800 ng·h/mL
Human alphaherpesvirus 2 [1]
  IC50: 16 nM
[11]
  Fu: 1.2%
Human alphaherpesvirus 1 [12]
  Activity: 32%
[13]
  bioavailability: 83%
[14]
  AUC: 12900 ng·h/mL
[15]
  bioavailability: 65%
[16]
  F: 63%
[17]
  t1/2: 22 h
[18]
  AUC: 39500 ng·h/mL
[19]
  AUC: 54200 ng·h/mL
[20]
  Fu: 0.75%
[21]
  t1/2: 5 h
[22]
  bioavailability: 60%
[23]
  t1/2: 30 h
[24]
  Fu: 2.7%
Human alphaherpesvirus 1 [25]
  ED50: 22 mg/kg
[26]
  Fu: 3.4%
[27]
  Fu: 5.9%
[28]
  Fu: 0.97%
Human alphaherpesvirus 1 [2]
  IC50: 20 nM

## CNS(=O)(=O)c1sc(N(C)C(=O)Cc2ccc(-c3ccccc3)cc2)nc1C
Human alphaherpesvirus 2 [1]
  IC50: 50 nM
Human alphaherpesvirus 1 [2]
  IC50: 0.5 nM

## Cc1nc(N(C)C(=O)Cc2ccc(-n3cccn3)cc2)sc1S(N)(=O)=O
Human alphaherpesvirus 2 [1]
  IC50: 100 nM
Human alphaherpesvirus 1 [2]
  IC50: 10 nM

## Cc1nc(N(C)C(=O)Cc2ccc(-c3ccccc3)cc2)sc1S(N)(=O)=O
Human alphaherpesvirus 2 [1]
  IC50: 5 nM
Human alphaherpesvirus 1 [2]
  IC50: < 0.05 nM

## CNS(=O)(=O)c1ccc2c(c1)N(C(=O)Nc1ccc(N3CCCC3)cc1)C(C)C2 (centres undefined)
Human alphaherpesvirus 2 [1]
  IC50: 40 nM
Human alphaherpesvirus 1 [2]
  IC50: 25 nM

## Cc1ccc(F)cc1-c1ccc(CC(=O)N(C)c2nc(C)c(S(N)(=O)=O)s2)cc1
Human alphaherpesvirus 2 [1]
  IC50: 125 nM
Human alphaherpesvirus 1 [2]
  IC50: 100 nM

## CC1Cc2ccc(S(N)(=O)=O)cc2N1C(=O)Nc1ccc(-c2ccccc2)cc1 (centres undefined)
Human alphaherpesvirus 2 [1]
  IC50: 60 nM
Human alphaherpesvirus 1 [2]
  IC50: 10 nM

## Cc1nc(N(C)C(=O)Cc2ccc(-c3ccccc3)cc2)sc1S(=O)(=O)NCCN
Human alphaherpesvirus 1 [2]
  IC50: 100 nM

## COc1ccccc1-c1ccc(CC(=O)N(C)c2nc(C)c(S(N)(=O)=O)s2)cc1
Human alphaherpesvirus 2 [1]
  IC50: 0.05 nM
Human alphaherpesvirus 1 [2]
  IC50: 2 nM

## Cc1nc(N(C)C(=O)Cc2ccc(-c3c(C)noc3C)cc2)sc1S(N)(=O)=O
Human alphaherpesvirus 1 [2]
  IC50: > 5 nM

## CC1Cc2ccc(S(=O)(=O)NC3CC3)cc2N1C(=O)Nc1ccc(-c2ccccc2)cc1 (centres undefined)
Human alphaherpesvirus 2 [1]
  IC50: 150 nM
Human alphaherpesvirus 1 [2]
  IC50: 50 nM

## Cc1nc(NC(=O)Nc2ccc(N3CCOCC3)cc2)sc1S(=O)(=O)N(C)C
Human alphaherpesvirus 2 [1]
  IC50: 4000 nM
Human alphaherpesvirus 1 [2]
  IC50: 2000 nM

## Cc1nc(N(C)C(=O)Nc2ccc(-c3ccccc3)cc2)sc1S(=O)(=O)NC1CC1
Human alphaherpesvirus 2 [1]
  IC50: 100 nM
Human alphaherpesvirus 1 [2]
  IC50: 20 nM

## CS(=O)(=O)O.Cc1nc(N(C)C(=O)Cc2ccc(-c3ccccn3)cc2)sc1S(N)(=O)=O.O
[29]
  logP: 1.745

## Cc1nc(N(C)C(=O)Cc2ccc(-c3ccccc3)cc2)sc1S(=O)(=O)NCC(F)(F)F
Human alphaherpesvirus 2 [1]
  IC50: 150 nM
Human alphaherpesvirus 1 [2]
  IC50: 50 nM

## COc1ccc(F)cc1-c1ccc(CC(=O)N(C)c2nc(C)c(S(N)(=O)=O)s2)cc1
Human alphaherpesvirus 2 [1]
  IC50: < 0.05 nM
Human alphaherpesvirus 1 [2]
  IC50: 0.25 nM

## Cc1nc(C(C)C(=O)Nc2ccc(-c3ccccc3)cc2)sc1S(N)(=O)=O (centres undefined)
Human alphaherpesvirus 2 [1]
  IC50: 10 nM
Human alphaherpesvirus 1 [2]
  IC50: 50 nM

## Cc1nc(N(C)C(=O)Cc2ccc(-c3cccnc3)cc2)sc1S(N)(=O)=O
Human alphaherpesvirus 2 [1]
  IC50: 5 nM
Human alphaherpesvirus 1 [2]
  IC50: 5 nM

## Cc1nc(N(C)C(=O)Nc2ccc(N3CCOCC3)cc2)sc1S(=O)(=O)N(C)C
Human alphaherpesvirus 2 [1]
  IC50: 1500 nM
Human alphaherpesvirus 1 [2]
  IC50: 750 nM

## CNS(=O)(=O)c1sc(N(C)C(=O)Nc2ccc(-c3ccccc3)cc2)nc1C
Human alphaherpesvirus 2 [1]
  IC50: 5 nM
Human alphaherpesvirus 1 [2]
  IC50: 1 nM

## Nc1nc2c(ncn2COCCO)c(=O)[nH]1 [ACYCLOVIR]
Human alphaherpesvirus 2 [9]
  ED50: 0.5 mg/kg
[30]
  bioavailability: 63%
[31]
  bioavailability: 83%
[32]
  bioavailability: 65%
[33]
  bioavailability: 54%

## Nc1nc2c(ncn2CCC(CO)CO)c(=O)[nH]1 [PENCICLOVIR]
[22]
  bioavailability: 60%

## CC(C)[C@H](N)C(=O)OCCOCn1cnc2c(=O)nc(N)[nH]c21 [VALACYCLOVIR]
Human alphaherpesvirus 2 [9]
  ED50: 14 mg/kg
Human alphaherpesvirus 1 [25]
  ED50: 17 mg/kg
